Test results published in US4491675A, “Hydroformylation process using triarylphosphine and bisphosphine monooxide ligands” (Union Carbide Corporation, priority 1981, dated 1985).

How the values were obtained:
[1] = Continuous propylene hydroformylation, long term catalyst stability (Examples 1 to 13, Table I); details: for thermal catalyst stability: 130° C., in words, relative comparison of ligand systems of Table I; for Aldehyde Product Reaction Rate, day 4, corrected reaction rate (in parenthesis) / Aldehyde Product Reaction Rate, day 4: day 4 at 130° C.; for Aldehyde Product Reaction Rate, day 4, corrected reaction rate (in parenthesis): corrected with mathematical rate model for standard rhodium-triphenylphosphine catalyst; for % Activity Decline: decline in catalyst activity from Day 1 through Day 4 at 130° C.; for Aldehyde Product Reaction Rate, day 1 / Aldehyde Product Reaction Rate, day 4: observed, total gas about 165 psig, Rh 100 or 200 ppm; for Aldehyde Product Reaction Rate, day 1: day 1 at 130° C.
Method: A series of long term catalyst stability experiments were conducted in a glass reactor operating in a continuous propylene hydroformylation mode. The reactor consisted of a three ounce pressure bottle submersed in an oil bath with a glass front for viewing. In each experiment about 20 ml. of a freshly prepared rhodium catalytic precursor solution was charged to the reactor with a syringe after purging the system with nitrogen. Each precursor solution contained from 100 to 200 ppm rhodium calculated as free metal (as noted in Table I below) introduced as rhodium dicarbonyl acetylacetonate, a phosphorus ligand or mixture of phosphorus ligands and a solvent.
After closing the reactor, the system was again purged with nitrogen and the oil bath was heated to furnish the desired hydroformylation reaction temperature. […] The flows of the feed gases (carbon monoxide, hydrogen and propylene) were controlled individually with mass flow meters and the feed gases dispersed into the precursor solution via fritted glass spargers. The unreacted portion of the feed gases stripped out the product aldehydes. […] The product aldehydes for each experiment were analyzed over the first day of continuous operation at 130° C. and over the fourth day of continuous operation at 130° C. and the average reaction rates for each experiment in terms of gram moles per liter per hour of total product aldehydes for the first and fourth days of continuous operation at the average measured partial pressures of hydrogen, carbon monoxide and propylene for said days are given in Table I below.

[2] = Continuous propylene hydroformylation with stepwise CO partial pressure increase, catalyst stability (Examples 14 to 18, Table II); details: for Aldehyde Product Reaction Rate, day 12, corrected reaction rate (in parenthesis): day 12 at 130° C., corrected with mathematical rate model for standard rhodium-triphenylphosphine catalyst; for % Activity Decline: decline in catalyst activity from Day 6 through Day 12 at 130° C.; for Aldehyde Product Reaction Rate, day 6: observed, day 6 at 130° C., total gas about 165 psig, Rh 200 or 300 ppm
Source text: During days 9 to 13 the carbon monoxide partial pressure was increased stepwise from about 10 to 25 psia and returned to about 10 psia for day 14.

With `O=P(CCP(c1ccccc1)c1ccccc1)(c1ccccc1)c1ccccc1` [Example 9, (C6 H5)2 P(CH2)2 P(O)(C6 H5)2] the thermal catalyst stability [1] was “inferior thermal stability”, the “Aldehyde Product Reaction Rate, day 4, corrected reaction rate (in parenthesis)” value [1] was 0.63 g·mol/L/h and the “% Activity Decline” value [1] was 40%. The “Aldehyde Product Reaction Rate, day 1” value [1] was 1.06 g·mol/L/h and the “Aldehyde Product Reaction Rate, day 4” value [1] was 0.87 g·mol/L/h.
For (CH3 OC6 H4)3 P [Example 5], the “Aldehyde Product Reaction Rate, day 4, corrected reaction rate (in parenthesis)” value [1] was 1.36 g·mol/L/h, the “% Activity Decline” value [1] was 13% and the “Aldehyde Product Reaction Rate, day 1” value [1] was 1.57 g·mol/L/h. The “Aldehyde Product Reaction Rate, day 4” value [1] was 1.68 g·mol/L/h.
For (CH3 O-C6 H4)3 P [Example 16], the “Aldehyde Product Reaction Rate, day 12, corrected reaction rate (in parenthesis)” value [2] was 1.14 gmoles/L hr, the “% Activity Decline” value [2] was 14% and the “Aldehyde Product Reaction Rate, day 6” value [2] was 1.33 gmoles/L hr.
In the case of `c1ccc(P(c2ccccc2)c2ccccc2)cc1` [Example 1, (C6 H5)3 P], the thermal catalyst stability [1] is reported as “inferior thermal stability”, the “Aldehyde Product Reaction Rate, day 4, corrected reaction rate (in parenthesis)” value [1] is reported as 1.00 g·mol/L/h and the “% Activity Decline” value [1] is reported as 42%. The “Aldehyde Product Reaction Rate, day 1” value [1] was 1.74 g·mol/L/h and the “Aldehyde Product Reaction Rate, day 4” value [1] was 1.12 g·mol/L/h.
With CH3 -C6 H4)3 P [Example 15] the “Aldehyde Product Reaction Rate, day 12, corrected reaction rate (in parenthesis)” value [2] was 1.24 gmoles/L hr, the “% Activity Decline” value [2] was 17% and the “Aldehyde Product Reaction Rate, day 6” value [2] was 1.50 gmoles/L hr.
For `c1ccc(P(c2ccccc2)c2ccccc2)cc1` [Example 14, (C6 H5)3 P], the “Aldehyde Product Reaction Rate, day 12, corrected reaction rate (in parenthesis)” value [2] was “.76 gmoles/L hr”, the “% Activity Decline” value [2] was 32% and the “Aldehyde Product Reaction Rate, day 6” value [2] was 1.12 gmoles/L hr.
For (ClC6 H4)3 P [Example 8], the “Aldehyde Product Reaction Rate, day 4, corrected reaction rate (in parenthesis)” value [1] was “.32 g·mol/L/h”, the “% Activity Decline” value [1] was 46% and the “Aldehyde Product Reaction Rate, day 1” value [1] was 0.59 g·mol/L/h. The “Aldehyde Product Reaction Rate, day 4” value [1] was 0.49 g·mol/L/h.
In the case of (CH3 C6 H4)3 P [Example 3], the “Aldehyde Product Reaction Rate, day 4, corrected reaction rate (in parenthesis)” value [1] is reported as 1.02 g·mol/L/h, the “% Activity Decline” value [1] is reported as 25% and the “Aldehyde Product Reaction Rate, day 1” value [1] is reported as 1.36 g·mol/L/h. For the same molecule, the “Aldehyde Product Reaction Rate, day 4” value [1] was 1.49 g·mol/L/h.
